Assays:
RM-1 = RM-1 subcutaneous syngeneic prostate cancer mouse model (Study 7), tumor growth inhibition; assay type: in vivo, mouse (C57BL/6); conditions: RM-1 model, study end day Day 19
Method: (§1) In this example, the in vivo anti-tumor efficacy of ARI-001, ARI-002, ARI-003, and ARI-143 and their combinations with an anti-PD-1 antibody was evaluated using a panel of twelve subcutaneous syngeneic mouse tumor models.
(§2) Eleven subcutaneous syngeneic mouse tumor models were generated by innoculating female BALB/C or C57BL/6 mice with cancer cells at their right lower or right front flank followed by randomization as detailed in Table 4 below.
(§3) A solution of a rat monoclonal anti-mouse PD-1 antibody (isotype IgG2a, κ) at a concentration of 6.61 mg/ml was obtained from BioXcell (InVivoMAb anti-mouse PD-1 (CD279), Clone RMP1-14, Cat #BE0146)) and store at 4° C. The antibody solution was diluted with PBS to obtain a 1 mg/ml dosing solution.
(§4) ARI-001, ARI-002, and ARI-003 powder was stored at −20° C. The powder of each compound was dissolved in DMSO to obtain dosing solutions at 106.7, 80, and 53.33 mg/ml for administration to mice at 160, 120, and 80 mg/kg, respectively. ARI-143 was similarly prepared.
(§5) Twelve studies using the twelve subcutaneous syngeneic mouse tumor models were performed. In each study, 80 mice were enrolled and randomly allocated to eight different study groups, with 10 mice in each study group. The mean tumor size at randomization was approximately 80-120 mm^3 (around 100 mm^3). Randomization was performed based on “Matched distribution” randomization method (StudyDirector™ software, version 3.1.399.19). […] All the drugs and vehicle controls were injected to the mice intraperitoneally.
(§6) After tumor cell inoculation, the animals were checked daily for morbidity and mortality. At the time of routine monitoring, the animals were checked for any effects of tumor growth and treatments on behavior such as mobility, food and water consumption, body weight gain/loss (body weights were measured twice or three times per week after randomization), and any other abnormalities. Mortality and observed clinical signs were recorded for individual animals. Tumor volumes were measured twice or three times weekly after randomization in two dimensions using a caliper, and the volume was expressed in mm^3 using the formula: […]
(§7) where V is tumor volume, L is tumor length (the longest tumor dimension) and W is tumor width (the longest tumor dimension perpendicular to L).
(§8) The study was terminated when the mean tumor volume (MTV) in the vehicle group reached a value of 2,000 mm^3. Tumor growth inhibition (TGI) is an indication of antitumor activity, and expressed as: […]
(§9) where T and C are the MTV (or weight) of the treated and control groups, respectively, on a given day. Statistical analysis of the difference in MTV among the groups was conducted using the data collected on the day when the MTV of the vehicle group reached the humane endpoints, so that TGI could be derived for all or most mice enrolled in the study.
(§10) Statistical analysis of differences in MTV among the groups was conducted by Independent-Samples T Test using the data collected. All data were analyzed with SPSS (Statistical Product and Service Solutions) version 18.0 (IBM, Armonk, N.Y., U.S.). P-values were rounded to three decimal places, with the exception that raw P-values less than 0.001 were stated as P<0.001. All tests were two-sided. P<0.05 was considered to be statistically significant.
FIG. 66 is a graph showing the mean tumor volume on different study days in the study groups as indicated according to Study 7 (RM-1). The study end day was Day 19.

Renca = Renca subcutaneous syngeneic kidney cancer mouse model (Study 8), tumor growth inhibition; assay type: in vivo, mouse (BALB/C)
Method: as §1, §2, §3, §4, §5, §6, §7, §8, §9, §10
FIG. 67 is a graph showing the mean tumor volume on different study days in the study groups as indicated according to Study 8 (Renca). The study end day was Day 28.

H22 = H22 subcutaneous syngeneic liver cancer mouse model (Study 11), tumor growth inhibition; assay type: in vivo, mouse (BALB/C)
Method: as §1, §2, §3, §4, §5, §6, §7, §8, §9, §10
FIG. 70 is a graph showing the mean tumor volume on different study days in the study groups as indicated according to Study 11 (H22). The study end day was Day 18.

Hepa1-6 = Hepa1-6 subcutaneous syngeneic liver cancer mouse model (Study 9), tumor growth inhibition; assay type: in vivo, mouse (C57BL/6)
Method: as §1, §2, §3, §4, §5, §6, §7, §8, §9, §10
FIG. 68 is a graph showing the mean tumor volume on different study days in the study groups as indicated according to Study 9 (Hepal-6). The study end day was Day 26.

MC38 = MC38 subcutaneous syngeneic colon cancer mouse model (Study 1), tumor growth inhibition; assay type: in vivo, mouse (C57BL/6)
Method: as §1, §2, §3, §4, §5, §6, §7, §8, §9, §10
FIG. 60 is a graph showing the mean tumor volume on different study days in the study groups as indicated according to Study 1 (MC38). The study end day was Day 26.

A20 = A20 subcutaneous syngeneic lymphoma mouse model (Study 5), tumor growth inhibition; assay type: in vivo, mouse (BALB/C); conditions: A20 model, i.p.; ARI compounds 160 mg/kg QD × 14 doses, Anti-PD-1 10 BIW × 4 doses; study end day Day 26
Method: as §1, §2, §3, §4, §5, §6, §7, §8, §9, §10
FIG. 64 is a graph showing the mean tumor volume on different study days in the study groups as indicated according to Study 5 (A20). The study end day was Day 26.

Pan02 = Pan02 subcutaneous syngeneic pancreatic cancer mouse model (Study 3), tumor growth inhibition; assay type: in vivo, mouse (C57BL/6)
Method: as §1, §2, §3, §4, §5, §6, §7, §8, §9, §10
FIG. 62 is a graph showing the mean tumor volume on different study days in the study groups as indicated according to Study 3 (Pan02). The study end day was Day 32.

CT26 = experiment: CT-26 subcutaneous syngeneic colon cancer mouse model (Study 4), tumor growth inhibition; assay type: in vivo, mouse (BALB/C); conditions: CT-26 model, i.p.; ARI compounds 160 mg/kg QD × 15 doses, Anti-PD-1 10 BIW × 5 doses; study end day Day 23
Method: as §1, §2, §3, §4, §5, §6, §7, §8, §9, §10
FIG. 63 is a graph showing the mean tumor volume on different study days in the study groups as indicated according to Study 4 (CT-26). The study end day was Day 23.

EMT-6 = EMT-6 subcutaneous syngeneic breast cancer mouse model (Study 2 and Study 12), tumor growth inhibition; assay type: in vivo, mouse (BALB/C); conditions: EMT-6 syngeneic breast cancer model
Method: as §1, §2, §3, §4, §5, §6, §7, §8, §9, §10
FIG. 61 is a graph showing the mean tumor volume on different study days in the study groups as indicated according to Study 2 (EMT-6). The study end day was Day 27.

LL/2 = LL/2 subcutaneous syngeneic lung cancer mouse model (Study 6), tumor growth inhibition; assay type: in vivo, mouse (C57BL/6)
Method: as §1, §2, §3, §4, §5, §6, §7, §8, §9, §10
FIG. 65 is a graph showing the mean tumor volume on different study days in the study groups as indicated according to Study 6 (LL/2). The study end day was Day 32.

B16F10 = B16F10 subcutaneous syngeneic melanoma mouse model (Study 10), tumor growth inhibition; assay type: in vivo, mouse (C57BL/6)
Method: as §1, §2, §3, §4, §5, §6, §7, §8, §9, §10
FIG. 69 is a graph showing the mean tumor volume on different study days in the study groups as indicated according to Study 10 (B16F10). The study end day was Day 19.

[1] = MC38 model, i.p., ARI compounds 160 mg/kg QD × 17 doses, Anti-PD-1 10 BIW × 5 doses, study end day Day 26
[2] = Pan02 model, i.p., ARI compounds 160 mg/kg QD × 28 doses, Anti-PD-1 10 BIW × 8 doses, study end day Day 32
[3] = Pan02 syngeneic pancreatic cancer model

NC(=O)c1csc(C(=O)c2c[nH]c3ccccc23)n1 [ARI-003]
Tumor size (RM-1; Mean ± SEM, in mm³): 1703.05 ± 39.79
TGI(%) (RM-1): 43%
Tumor size (Renca; Renca model, Mean ± SEM, study end day Day 28, in mm³): 1240.04 ± 90.09
TGI(%) (Renca; Renca model, study end day Day 28): 42%
anti-tumor potency of anti-PD-1 antibody combined with the compound, compared to the antibody alone (Renca; Renca syngeneic kidney cancer model): statistically significant increase
Tumor size (H22; H22 model, Mean ± SEM, study end day Day 18, in mm³): 1547.54 ± 100.51
TGI(%) (H22; H22 model, study end day Day 18): 31%
anti-tumor potency of the compound combined with anti-PD-1 antibody, compared to being used alone (H22; H22 syngeneic liver cancer model): statistically significant increase
Tumor size (Hepa1-6; Hepa1-6 model, Mean ± SEM, study end day Day 26, in mm³): 1251.31 ± 158.72
TGI(%) (Hepa1-6; Hepa1-6 model, study end day Day 26): 23%
anti-tumor potency of the compound combined with anti-PD-1 antibody, compared to being used alone (Hepa1-6; Hepa1-6 syngeneic liver cancer model): statistically significant increase
TGI(%) (MC38; [1]): 35%
Tumor size (Mean ± SEM) (MC38; [1]): 1691.11 ± 123.57 mm^3
anti-tumor potency of anti-PD-1 antibody combined with the compound, compared to the antibody alone or the vehicle (MC38; MC38 syngeneic colon cancer model): statistically significant increase
TGI(%) (A20): 54%
Tumor size (Mean ± SEM) (A20): 1206.83 ± 121.06 mm^3
TGI(%) (Pan02; [2]): 62%
Tumor size (Mean ± SEM) (Pan02; [2]): 340.16 ± 49.76 mm^3
anti-tumor potency of anti-PD-1 antibody combined with the compound, compared to the antibody alone (Pan02; [3]): statistically significant increase
anti-tumor potency of the compound combined with anti-PD-1 antibody, compared to being used alone (Pan02; [3]): statistically significant increase
TGI(%) (CT26): 64%
Tumor size (Mean ± SEM) (CT26): 836.51 ± 110.61 mm^3
anti-tumor potency of anti-PD-1 antibody combined with the compound, compared to the antibody alone or the vehicle (EMT-6): statistically significant increase
Tumor size (LL/2; LL/2 model, Mean ± SEM, study end day Day 32, in mm³): 839.79 ± 99.43
TGI(%) (LL/2; LL/2 model, study end day Day 32): 62%
anti-tumor potency of anti-PD-1 antibody combined with the compound, compared to the antibody alone or the vehicle (LL/2; LL/2 syngeneic lung cancer model): statistically significant increase
Tumor size (B16F10; B16F10 model, Mean ± SEM, study end day Day 19, in mm³): 2234.18 ± 248.14
TGI(%) (B16F10; B16F10 model, study end day Day 19): 24%
anti-tumor potency of anti-PD-1 antibody combined with the compound, compared to the antibody alone or the vehicle (B16F10; B16F10 syngeneic melanoma model): statistically significant increase

From patent US20230054194A1, “Methods of Treating Cancer” (ARIAGEN, INC., priority 2018, published 2023)
